Experimental data reported in patent publication US20230355625A1, “METHODS OF TREATMENT” (INTRA-CELLULAR THERAPIES, INC., priority 2019, published 2023).

Key:
[1] = tested on: healthy human individuals; experiment: BOLD-fMRI during the extinction phase of a fear conditioning task; format: in vivo; settings: single oral doses of 1 mg or 10 mg vs placebo; FIG. 1
Protocol: A randomized, double-blind, placebo-controlled, within-subjects study was carried out with healthy human individuals to determine whether the PDE1 inhibitors according to the present disclosure induce changes in blood oxygen level dependent functional magnetic resonance imaging (BOLD-fMRI) signals in the dorsal anterior insula (dAI) during the extinction phase of a fear conditioning task. To test these effects, Compound 1 was administered to healthy human patients. Compound 1 (ITI-214) is shown below:
The insula is a small brain region that is essential for the mind-body connection, where body sensations are translated into emotion. Anterior insula reactivity has been associated with anticipating significant events, and increased anterior insula activity has been associated with anxiety. Conditioning, including fear conditioning and extinction, is a brain activity during learning. […]
Patients were administered single oral doses of placebo, or doses of Compound 1 at 1 mg or 10 mg. Brain activity was then measured during BOLD-fMRI scanning at 3 Tesla. […] Region-of-interest (ROI) analyses for the dAI, IFG, and other prespecified regions were computed using linear mixed models in R. The brain's response is measured in each subject by fMRI scans, which is summarized in FIG. 1.

[2] = tested on: healthy human individuals; experiment: BOLD-fMRI during a stop signal task; format: in vivo
Protocol: The Stop Signal task is a way to measure behavioral and neural responses to inhibitory processing.
Patients were again administered single oral doses of placebo, Compound 1 at 1 mg or 10 mg. Brain activity was then measured during BOLD-fMRI scanning at 3 Tesla. In this study, participants are presented with a visual and/or audio cue and two buttons. The subjects are instructed to press the left button as quickly as possible when an ‘X’ appears on a screen and the right button when an ‘O’ appears. Participants also are instructed not to press either button when they hear a tone, which constitute the Stop trials. There are two different kinds of Stop trials presented during the task, namely easy and hard trials. Easy trials consist of the tone cue being presented simulataneously with the visual ‘X’ or ‘O’ making it easier to suppress a response. Hard trials consist of the tone being presented after a brief delay, making it harder to process the tone and suppress a response.
This consistency provides confidence in the findings.

preclinical models = preclinical models of cognitive performance; format: in vivo
animal models = settings: cited from earlier work
healthy humans = settings: cited from earlier work; for fear extinction learning: humans
[3] = in vivo; cited from earlier work

| Compound | insula activity (dorsal anterior insula BOLD-fMRI signal) during fear extinction [1] | activity in the dorsolateral prefrontal cortex during stop signal task ([2]; FIG. 3) | activity in the dorsal anterior cingulate cortex during stop signal task ([2]; FIG. 4) | activity in the anterior insula during stop signal task ([2]; FIG. 5) | activation in the frontal gyrus ([2]; human, 1 mg where stated) | activation in the inferior frontal gyrus during correctly inhibited Stop trials, easy trials (correcteasy) ([2]; single oral dose 1 mg, FIG. 2) | activation in the inferior frontal gyrus during correctly inhibited Stop trials, hard trials (correcthard) ([2]; single oral dose 1 mg, FIG. 2) | cognitive performance (preclinical models) | psychomotor hyperactivity (preclinical models) | extinction of contextual fear (cognitive function) (animal models) | effect on the bilateral anterior insula during a fear extinction task (healthy humans; healthy humans) | fear extinction learning (healthy humans) | activation in the frontal gyrus during a stop signal task [3] | inhibitory performance during a stop signal task [3] |
| --- | --- | --- | --- | --- | --- | --- | --- | --- | --- | --- | --- | --- | --- | --- |
| CN1C(=O)c2c(nn(Cc3ccc(-c4cccc(F)n4)cc3)c2Nc2ccccc2)N2C1=N[C@@H]1CCC[C@@H]12 [Compound 1] | slightly attenuated | increased activity | increased activity | increased activity | increased activation | significantly increased activation | significantly increased activation | improved cognitive performance | without psychomotor hyperactivity |  |  |  |  |  |
| COC(=O)C(c1ccccc1)C1CCCCN1 (stereo not drawn) [methylphenidate] |  |  |  |  |  |  |  |  |  | enhanced extinction of contextual fear | attenuating effect | enhancement of fear extinction learning | increase activation | improve inhibitory performance |
| NC(=O)C[S+]([O-])C(c1ccccc1)c1ccccc1 (stereo not drawn) [modafinil] |  |  |  |  |  |  |  |  |  | enhanced extinction of contextual fear |  | enhancement of fear extinction learning | increase activation | improve inhibitory performance |
